Measured values taken from patent publication US7626005B2, “Inhibitors of aminoglycoside 6′-N-acetyltransferases, compositions and uses thereof” (priority 2005, dated 2009).

How the values were obtained:
AAC(6′)-Ii [1] = biological target: T1, AAC(6′)-Ii (Enterococcus faecium, UniProt Q47764); assay: AAC6′-Ii inhibition assay (DTDP-coupled, varying AcCoA); type: biochemical; set-up: made in house; host or cells: Escherichia coli BL21; settings: for type of inhibition (in words): versus acetylCoA; for Vm: maximal velocity from the fit of the inhibition assay; for enhanced inhibition of AAC(6′)-Ii as compared to lysine-CoA conjugates (3a and 3b): relative to 3a and 3b
Protocol: AAC(6′)-Ii was obtained using a previously described protocol (Wright and Ladak, 1997). The Escherichia coli strain BL21 was transformed with a pET22b expression plasmid containing the AAC(6′)-Ii gene. The bacteria were grown in Luria-Bertani (LB) media at 37° C. containing ampicillin (100 μg/mL). Expression of the protein was induced using isopropyl-β-D-thiogalactoside (IPTG). After harvesting the cells by centrifugation and washing them with a 0.85% NaCl solution, the cells were lysed by sonication. AAC(6′)-Ii was purified in a two-step process: firstly, the lysate was ran through a Q-Sepharose ion exchange column (GE Healthsciences), and secondly the AAC(6′)-Ii containing fractions were further purified using a Gentamicin agarose affinity column (BioRad).
Enzyme activity was monitored using a procedure described elsewhere (Williams and Northrop, 1978). Thus, reaction mixtures in HEPES (1 mM, pH=7.5) and containing 4,4′-dithiodipyridine (DTDP, 2 mM), aminoglycoside (200 μM), and AAC(6′)-Ii (25 μg/mL) were prepared with varying concentrations of AcCoA. Reaction volumes were typically 400 μl. The assay mixtures were preincubated for 1 min at 37° C. The initial rates V were fit to Equation S1, where [S] is the concentration of AcCoA, Km is the Michaelis-Menten constant, and Vm is the maximal velocity: [S]/V=[S]/Vm+Km/Vm (S1)
The initial reaction velocity (steady-state) in the presence of inhibitors was measured as described above. The initial rates obtained at various concentrations of inhibitor were fit to Equation S2 for competitive inhibition, to Equation S3 for […] inhibition, or to Equation S4 for uncompetitive inhibition, where [I] is the concentration of inhibitor and Ki is the inhibition constant: [S]/V=[S]/Vm+(1+[I]/Ki)Km/Vm (S2) [S]/V=(1+[I]/Ki)[S]/Vm+Km/Vm (S3) [S]/V=(1+[I]/Ki)[S]/Vm+(1+[I]/Ki)Km/Vm (S4)

AAC(6′)-Iy = biological target: T2, AAC(6′)-Iy (Salmonella enteritidis, UniProt Q9R381); assay: Inhibition assay of AAC(6′)-Iy; type: biochemical, Salmonella enterica; settings: for Ki: Table 2
T2 sequence (Q9R381 1-145): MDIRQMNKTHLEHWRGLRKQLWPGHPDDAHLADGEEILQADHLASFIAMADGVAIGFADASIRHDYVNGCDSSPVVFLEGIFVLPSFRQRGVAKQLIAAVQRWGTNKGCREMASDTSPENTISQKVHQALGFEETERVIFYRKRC

AAC(6′)-Ii [2] = biological target: T1, AAC(6′)-Ii; settings: read-out: Michaelis-Menten constant (Km); acetyl CoA as substrate of AAC(6′)-Ii; cited from earlier work
[3] = Ki (μM), Table 1, inhibition of AAC(6′)-Ii, varying AcCoA
[4] = inhibition constant (Ki), running text b80

T1 sequence (Q47764 1-182): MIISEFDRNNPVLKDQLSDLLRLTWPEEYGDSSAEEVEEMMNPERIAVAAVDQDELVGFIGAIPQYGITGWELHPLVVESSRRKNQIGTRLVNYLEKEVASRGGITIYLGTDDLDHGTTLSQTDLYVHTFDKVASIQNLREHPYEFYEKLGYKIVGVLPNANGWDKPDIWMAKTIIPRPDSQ

Row | SMILES | inhibition of AAC(6′)-Ii (in words) (AAC(6′)-Ii [1]) | Ki (AAC(6′)-Ii [1]; [3]) | Ki (AAC(6′)-Ii [1]; [4]) | type of inhibition (in words) (AAC(6′)-Ii [1]) | Ki values (in words) (AAC(6′)-Iy) | Ki (AAC(6′)-Iy) | Ki values (in words) (AAC(6′)-Ii [1]) | Ki (AAC(6′)-Ii [1]; AAC(6′)-Ii [Ki, (μM)], Table 2) | Vm (AAC(6′)-Ii [1]; Table 1) | enhanced inhibition of AAC(6′)-Ii as compared to lysine-CoA conjugates (3a and 3b) (AAC(6′)-Ii [1]) | type of inhibition (in words) (AAC(6′)-Ii [1]; listed as 10) | Km (AAC(6′)-Ii [2])
1 | COC(=O)C(CCCCNC(=O)CSCCNC(=O)CCNC(=O)C(O)C(C)(C)COP(=O)(O)OP(=O)(O)OCC1OC(n2cnc3c(N)ncnc32)C(O)C1OP(=O)(O)O)NC(C)=O (centres unmarked) [Compound 3a] | moderate inhibition | ≥ 130 µM | 130 µM | moderate competitive inhibition | – | – | – | – | – | – | – | –
2 | COC(=O)C(CCCCNC(=O)CCSCCNC(=O)CCNC(=O)C(O)C(C)(C)COP(=O)(O)OP(=O)(O)OCC1OC(n2cnc3c(N)ncnc32)C(O)C1OP(=O)(O)O)NC(C)=O (centres unmarked) [Compound 3b] | moderate inhibition | ≥ 30 µM | 30 µM | moderate competitive inhibition | – | – | – | – | – | – | – | –
3 | CC(C)(COP(=O)(O)OP(=O)(O)OCC1OC(n2cnc3c(N)ncnc32)C(O)C1OP(=O)(O)O)C(O)C(=O)NCCC(=O)NCCSCC(=O)NCC1OC(OC2C(N)CC(N)C(O)C2O)C(N)C(O)C1O (centres unmarked) [Compound 10a] | – | 0.076 ± 0.025 µM | – | potent competitive inhibitors | near submicromolar | 2.76 ± 0.4 µM | submicromolar range | 0.076 ± 0.025 µM | 0.15 ± 0.01 µM/s | 500 fold | competitive inhibition versus acetylCoA | –
4 | CC(C)(COP(=O)(O)OP(=O)(O)OCC1OC(n2cnc3c(N)ncnc32)C(O)C1OP(=O)(O)O)C(O)C(=O)NCCC(=O)NCCSCCC(=O)NCC1OC(OC2C(N)CC(N)C(O)C2O)C(N)C(O)C1O (centres unmarked) [Compound 10b] | highest inhibition among all the inhibitors | – | – | potent competitive inhibitors | near submicromolar | 1.89 ± 0.3 µM | submicromolar range | 0.043 ± 0.023 µM | – | – | – | –
5 | CC(C)(COP(=O)(O)OP(=O)(O)OCC1OC(n2cnc3c(N)ncnc32)C(O)C1OP(=O)(O)O)C(O)C(=O)NCCC(=O)NCCSCCCC(=O)NCC1OC(OC2C(N)CC(N)C(O)C2O)C(N)C(O)C1O (centres unmarked) [Compound 10c] | – | – | – | potent competitive inhibitors | near submicromolar | 2.1 ± 0.3 µM | submicromolar range | 0.161 ± 0.098 µM | – | – | – | –
6 | CC(C)(COP(=O)(O)OP(=O)(O)OCC1OC(n2cnc3c(N)ncnc32)C(O)C1OP(=O)(O)O)C(O)C(=O)NCCC(=O)NCCSCCCCC(=O)NCC1OC(OC2C(N)CC(N)C(O)C2O)C(N)C(O)C1O (centres unmarked) [Compound 10d] | – | – | – | – | near submicromolar | 1.9 ± 0.3 µM | – | 7.99 ± 2.66 µM | – | – | – | –
7 | CC(C)(COP(=O)(O)OP(=O)(O)OCC1OC(n2cnc3c(N)ncnc32)C(O)C1OP(=O)(O)O)C(O)C(=O)NCCC(=O)NCCSCC(=O)NCC1OC(OC2C(N)CC(N)C(O)C2OC2OC(CO)C(O)C2O)C(N)C(O)C1O (centres unmarked) [Compound 12] | – | 0.119 ± 0.014 µM | – | competitive inhibition versus acetylCoA | – | 1.1 ± 0.1 µM | – | 0.119 ± 0.014 µM | 0.14 ± 0.04 µM/s | 500 fold | – | –
8 | CC(=O)SCCNC(=O)CCNC(=O)[C@H](O)C(C)(C)COP(=O)(O)OP(=O)(O)OC[C@H]1O[C@@H](n2cnc3c(N)ncnc32)[C@H](O)[C@@H]1OP(=O)(O)O [acetyl CoA, Acetyl Coenzyme A] | – | – | – | – | – | – | – | – | – | – | – | 23.5 µM
